# Source: patent publication US8637510B2, “Morpholinothiazoles as alpha 7 positive allosteric modulators” (Janssen Pharmaceutica NV, priority 2009, dated 2014)
# Assays:
# human alpha 7-wt nAChR = target: T1, human alpha 7-wt nAChR (Homo sapiens, UniProt P36544); test: Ca2+ flux imaging (FDSS) (Protocol B); assay type: cell-based; settings: for Emax: efficacy of 100 μM choline defined as 100% in the absence of a PAM, read-out: a7-PAM-G_[33]_Eff_Curve_FI % Efficacy; for EC50: potentiation of 100 μM choline, compounds 0.01 μM to 30 μM, read-out: a7-PAM-G_[33]_pEC50 pEC50 (converted)
# T1 construct: expressed in transfected cells
# Summary of the method: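 PAM activity was measured as FDSS calcium fluorescence in α7-wt nAChR cells loaded with 2 μM Fluo-4AM, with compounds at 0.01–30 μM added alongside or 10 min ahead of sub-maximal 100 μM choline. Peak responses were normalised to choline-only efficacy, and EC50 was taken at half-maximal effect.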
# T1 sequence (P36544 23-502): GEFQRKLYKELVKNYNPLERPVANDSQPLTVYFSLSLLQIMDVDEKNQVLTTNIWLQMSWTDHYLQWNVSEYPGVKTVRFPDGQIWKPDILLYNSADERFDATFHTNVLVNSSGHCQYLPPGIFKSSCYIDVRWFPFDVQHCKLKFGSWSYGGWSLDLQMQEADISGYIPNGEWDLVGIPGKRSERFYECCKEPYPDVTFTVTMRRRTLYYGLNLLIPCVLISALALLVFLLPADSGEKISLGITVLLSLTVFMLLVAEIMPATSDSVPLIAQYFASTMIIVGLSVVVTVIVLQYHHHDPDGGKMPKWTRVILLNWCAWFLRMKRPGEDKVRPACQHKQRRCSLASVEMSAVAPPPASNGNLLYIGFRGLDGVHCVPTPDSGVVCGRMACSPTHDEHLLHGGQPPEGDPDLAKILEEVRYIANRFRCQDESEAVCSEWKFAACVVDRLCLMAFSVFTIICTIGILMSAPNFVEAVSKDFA
compound,measurement,setting,value
"Cc1cc(-c2sc(N3CCOCC3)nc2CNC(=O)c2cc(C)on2)cc(C)n1 [Compound 63, N-[[5-(2,6-dimethyl-4-pyridinyl)-2-(4-morpholinyl)-4-thiazolyl]methyl]-5-methyl-3-isoxazolecarboxamide]",Emax,human alpha 7-wt nAChR,969%
same,EC50,human alpha 7-wt nAChR,1820 nM
same,melting point,,197 °C
"Cc1cc(-c2sc(N3CCOCC3)nc2CNC(=O)CC2CC2)cc(C)n1 [Compound 64, N-[[5-(2,6-dimethyl-4-pyridinyl)-2-(4-morpholinyl)-4-thiazolyl]methyl]-cyclopropaneacetamide]",Emax,human alpha 7-wt nAChR,980%
same,melting point,,188 °C
"Cc1cc(-c2sc(N3CCOCC3)nc2CNC(=O)C2CCC2)cc(C)n1 [Compound 65, N-[[5-(2,6-dimethyl-4-pyridinyl)-2-(4-morpholinyl)-4-thiazolyl]methyl]-cyclobutanecarboxamide]",EC50,human alpha 7-wt nAChR,3240 nM
same,melting point,,188 °C
"Cc1cc(-c2sc(N3CCOCC3)nc2CNC(=O)c2ccc(F)cc2)cc(C)n1 [Compound 66, N-[[5-(2,6-dimethyl-4-pyridinyl)-2-(4-morpholinyl)-4-thiazolyl]methyl]-4-fluoro-benzamide]",EC50,human alpha 7-wt nAChR,1200 nM
same,melting point,,210 °C
"CCCC(=O)NCc1nc(N2CCOCC2)sc1-c1cc(C)nc(C)c1 [Compound 67, N-[[5-(2,6-dimethyl-4-pyridinyl)-2-(4-morpholinyl)-4-thiazolyl]methyl]-butanamide]",Emax,human alpha 7-wt nAChR,959%
same,EC50,human alpha 7-wt nAChR,5370 nM
same,melting point,,178 °C
"Cc1cc(-c2sc(N3CCOCC3)nc2CNC(=O)c2ccc(F)cc2C)cc(C)n1 [Compound 80, N-[[5-(2,6-dimethyl-4-pyridinyl)-2-(4-morpholinyl)-4-thiazolyl]methyl]-4-fluoro-2-methyl-benzamide]",Emax,human alpha 7-wt nAChR,902%
same,EC50,human alpha 7-wt nAChR,661 nM
same,melting point,,221 °C
"Cc1cc(-c2sc(N3C[C@@H](C)O[C@@H](C)C3)nc2CNC(=O)c2cccc(F)c2)ccn1 [Compound 93, N-[[2-[(2R,6S)-2,6-dimethyl-4-morpholinyl]-5-(2-methyl-4-pyridinyl)-4-thiazolyl]methyl]-3-fluoro-benzamide]",Emax,human alpha 7-wt nAChR,477%
same,EC50,human alpha 7-wt nAChR,479 nM
same,melting point,,153 °C
"Cc1cc(-c2sc(N3C[C@@H](C)O[C@@H](C)C3)nc2CNC(=O)c2ccc(F)cc2)ccn1 [Compound 94, N-[[2-[(2R,6S)-2,6-dimethyl-4-morpholinyl]-5-(2-methyl-4-pyridinyl)-4-thiazolyl]methyl]-4-fluoro-benzamide]",Emax,human alpha 7-wt nAChR,420%
same,EC50,human alpha 7-wt nAChR,479 nM
same,melting point,,225 °C
"Cc1cc(-c2sc(N3C[C@@H](C)O[C@@H](C)C3)nc2CNC(=O)C2CCCC2)c(C)cn1 [Compound 96, N-[[2-[(2R,6S)-2,6-dimethyl-4-morpholinyl]-5-(2,5-dimethyl-4-pyridinyl)-4-thiazolyl]methyl]-cyclopentanecarboxamide]",Emax,human alpha 7-wt nAChR,420%
same,EC50,human alpha 7-wt nAChR,676 nM
same,melting point,,173 °C
"Cc1cc(-c2sc(N3C[C@@H](C)O[C@@H](C)C3)nc2CNC(=O)CC2CC2)c(C)cn1 [Compound 97, N-[[2-[(2R,6S)-2,6-dimethyl-4-morpholinyl]-5-(2,5-dimethyl-4-pyridinyl)-4-thiazolyl]methyl]-cyclopropaneacetamide]",Emax,human alpha 7-wt nAChR,424%
same,EC50,human alpha 7-wt nAChR,3020 nM
same,melting point,,138 °C
"Cc1cc(-c2sc(N3C[C@@H](C)O[C@@H](C)C3)nc2CNC(=O)c2cc(C)on2)c(C)cn1 [Compound 98, N-[[2-[(2R,6S)-2,6-dimethyl-4-morpholinyl]-5-(2,5-dimethyl-4-pyridinyl)-4-thiazolyl]methyl]-5-methyl-3-isoxazolecarboxamide]",EC50,human alpha 7-wt nAChR,4070 nM
same,melting point,,155 °C
"C[C@@H]1CN(c2nc(CNC(=O)CC3CC3)c(-c3ccncc3)s2)C[C@H](C)O1 [Compound 99, N-[[2-[(2R,6S)-2,6-dimethyl-4-morpholinyl]-5-(4-pyridinyl)-4-thiazolyl]methyl]-cyclopropaneacetamide]",EC50,human alpha 7-wt nAChR,7410 nM
same,melting point,,178 °C
"Cc1cc(C(=O)NCc2nc(N3C[C@@H](C)O[C@@H](C)C3)sc2-c2ccncc2)no1 [Compound 100, N-[[2-[(2R,6S)-2,6-dimethyl-4-morpholinyl]-5-(4-pyridinyl)-4-thiazolyl]methyl]-5-methyl-3-isoxazolecarboxamide]",EC50,human alpha 7-wt nAChR,1820 nM
same,melting point,,182 °C
"Cc1cc(F)ccc1C(=O)NCc1nc(N2C[C@@H](C)O[C@@H](C)C2)sc1-c1ccncc1 [Compound 102, N-[[2-[(2R,6S)-2,6-dimethyl-4-morpholinyl]-5-(4-pyridinyl)-4-thiazolyl]methyl]-4-fluoro-2-methyl-benzamide]",Emax,human alpha 7-wt nAChR,982%
same,EC50,human alpha 7-wt nAChR,347 nM
same,melting point,,161 °C
"CC(C)CC(=O)NCc1nc(N2C[C@@H](C)O[C@@H](C)C2)sc1-c1ccncc1 [Compound 103, N-[[2-[(2R,6S)-2,6-dimethyl-4-morpholinyl]-5-(4-pyridinyl)-4-thiazolyl]methyl]-3-methyl-butanamide]",EC50,human alpha 7-wt nAChR,1290 nM
same,melting point,,173 °C
"Cc1cc(C(=O)NCc2nc(N3CCOCC3)sc2-c2ccncc2)no1 [Compound 111, 5-methyl-N-[[2-(4-morpholinyl)-5-(4-pyridinyl)-4-thiazolyl]methyl]-3-isoxazolecarboxamide]",Emax,human alpha 7-wt nAChR,812%
same,melting point,,191 °C
"O=C(CC1CC1)NCc1nc(N2CCOCC2)sc1-c1ccncc1 [Compound 112, N-[[2-(4-morpholinyl)-5-(4-pyridinyl)-4-thiazolyl]methyl]-cyclopropaneacetamide]",Emax,human alpha 7-wt nAChR,525%
same,melting point,,135 °C
"Cc1cc(F)ccc1C(=O)NCc1nc(N2CCOCC2)sc1-c1ccncc1 [Compound 113, 4-fluoro-2-methyl-N-[[2-(4-morpholinyl)-5-(4-pyridinyl)-4-thiazolyl]methyl]-benzamide]",Emax,human alpha 7-wt nAChR,730%
same,EC50,human alpha 7-wt nAChR,2750 nM
same,melting point,,191 °C
"Cc1nocc1C(=O)NCc1nc(N2CCOCC2)sc1-c1ccncc1 [Compound 114, 3-methyl-N-[[2-(4-morpholinyl)-5-(4-pyridinyl)-4-thiazolyl]methyl]-4-isoxazolecarboxamide]",Emax,human alpha 7-wt nAChR,313%
same,melting point,,234 °C
"O=C(NCc1nc(N2CCOCC2)sc1-c1ccncc1)C1CC1 [Compound 116, N-[[2-(4-morpholinyl)-5-(4-pyridinyl)-4-thiazolyl]methyl]-cyclopropanecarboxamide]",Emax,human alpha 7-wt nAChR,259%
same,melting point,,189 °C
"Cc1ccc(-c2sc(N3C[C@@H](C)O[C@@H](C)C3)nc2CNC(=O)c2conc2C)cn1 [Compound 117, N-[[2-[(2R,6S)-2,6-dimethyl-4-morpholinyl]-5-(6-methyl-3-pyridinyl)-4-thiazolyl]methyl]-3-methyl-4-isoxazolecarboxamide]",Emax,human alpha 7-wt nAChR,665%
same,melting point,,129 °C
"Cc1ccc(-c2sc(N3C[C@@H](C)O[C@@H](C)C3)nc2CNC(=O)CC2CC2)cn1 [Compound 119, N-[[2-[(2R,6S)-2,6-dimethyl-4-morpholinyl]-5-(6-methyl-3-pyridinyl)-4-thiazolyl]methyl]-cyclopropaneacetamide]",Emax,human alpha 7-wt nAChR,302%
same,EC50,human alpha 7-wt nAChR,4270 nM
same,melting point,,139 °C
"Cc1ccc(-c2sc(N3C[C@@H](C)O[C@@H](C)C3)nc2CNC(=O)C2CCC2)cn1 [Compound 120, N-[[2-[(2R,6S)-2,6-dimethyl-4-morpholinyl]-5-(6-methyl-3-pyridinyl)-4-thiazolyl]methyl]-cyclobutanecarboxamide]",Emax,human alpha 7-wt nAChR,567%
same,melting point,,139 °C
"Cc1ccc(-c2sc(N3C[C@@H](C)O[C@@H](C)C3)nc2CNC(=O)c2ccccc2Cl)cn1 [Compound 121, 2-chloro-N-[[2-[(2R,6S)-2,6-dimethyl-4-morpholinyl]-5-(6-methyl-3-pyridinyl)-4-thiazolyl]methyl]-benzamide]",Emax,human alpha 7-wt nAChR,356%
same,EC50,human alpha 7-wt nAChR,2040 nM
same,melting point,,152 °C
"Cc1ccc(-c2sc(N3C[C@@H](C)O[C@@H](C)C3)nc2CNC(=O)c2cccc(Cl)c2)cn1 [Compound 122, 3-chloro-N-[[2-[(2R,6S)-2,6-dimethyl-4-morpholinyl]-5-(6-methyl-3-pyridinyl)-4-thiazolyl]methyl]-benzamide]",Emax,human alpha 7-wt nAChR,473%
same,EC50,human alpha 7-wt nAChR,1000 nM
same,melting point,,167 °C
"Cc1ccc(-c2sc(N3C[C@@H](C)O[C@@H](C)C3)nc2CNC(=O)c2ccc(Cl)cc2)cn1 [Compound 123, 4-chloro-N-[[2-[(2R,6S)-2,6-dimethyl-4-morpholinyl]-5-(6-methyl-3-pyridinyl)-4-thiazolyl]methyl]-benzamide]",Emax,human alpha 7-wt nAChR,636%
same,EC50,human alpha 7-wt nAChR,389 nM
same,melting point,,208 °C
"Cc1ccc(-c2sc(N3C[C@@H](C)O[C@@H](C)C3)nc2CNC(=O)c2cccc(F)c2)cn1 [Compound 125, N-[[2-[(2R,6S)-2,6-dimethyl-4-morpholinyl]-5-(6-methyl-3-pyridinyl)-4-thiazolyl]methyl]-3-fluoro-benzamide]",Emax,human alpha 7-wt nAChR,428%
same,EC50,human alpha 7-wt nAChR,851 nM
same,melting point,,147 °C
"Cc1ccc(-c2sc(N3C[C@@H](C)O[C@@H](C)C3)nc2CNC(=O)c2ccc(F)cc2)cn1 [Compound 126, N-[[2-[(2R,6S)-2,6-dimethyl-4-morpholinyl]-5-(6-methyl-3-pyridinyl)-4-thiazolyl]methyl]-4-fluoro-benzamide]",Emax,human alpha 7-wt nAChR,655%
same,EC50,human alpha 7-wt nAChR,1660 nM
same,melting point,,195 °C
"Cc1cc(-c2sc(N3C[C@@H](C)O[C@@H](C)C3)nc2CNC(=O)c2cc(C)oc2C)cc(C)n1 [Compound 146, N-[[2-[(2R,6S)-2,6-dimethyl-4-morpholinyl]-5-(2,6-dimethyl-4-pyridinyl)-4-thiazolyl]methyl]-2,5-dimethyl-3-furancarboxamide]",EC50,human alpha 7-wt nAChR,977 nM
same,melting point,,131 °C
